The target in data set [1] is T1, CDK2/cyclin A (Homo sapiens, UniProt P24941). Kind of data set: CDK2/cyclin A enzyme assay. It counts as biochemical. Particulars: Tables 1 and 2.
Data set [2] addresses T1, CDK2/cyclin A. Kind of data set: Reaction Biology 33P-ATP filter-binding kinase assay, CDK2/cyclin A. It counts as biochemical.
The test system of data set [3] is MCF-7 cell line. Kind of data set: Antiproliferation assay. Particulars: 72 h, alamarBlue, highest concentration tested. It counts as cell-based.
Data set [4] has as its target CDK2 (Homo sapiens, UniProt P24941). As to the kind of experiment: DiscoverX kinase binding assay for Kd. The note with it: for better binding affinity for CDK2 compared to screening hit 3: relative to 3.
The target of data set [5] is CDK2/cyclin E (Homo sapiens, UniProt P24941). As to the kind of experiment: Reaction Biology 33P-ATP filter-binding kinase assay, CDK2/cyclin E. It counts as biochemical.
In data set [6] the test system is MDCK cell line. Kind of data set: MDCK cell permeability assay. It counts as in vitro ADME. Particulars: 1 μM, 2 h; for Papp (A-B) (10^−6, cm/s): apical to basolateral; for Papp (B-A) (10^−6, cm/s): basolateral to apical.
Data set [7] relates to HSP90. Kind of data set: Test against HSP90. Particulars: data not shown.
For data set [8], the system named is CDK complexes. Kind of data set: Reaction Biology single-dose kinase profiling of CDK complexes. It counts as biochemical. Particulars: all tested CDK complexes.

Results on 14 molecules are retold here after article PMC7954990 (European journal of medicinal chemistry, 2021).

Some results are limits rather than exact numbers.

For `Cc1cccnc1-n1nc(C)c2c1CC(C)(C)C(Br)C2=O` (stereo not shown) [Compound 40, 5-Bromo-3,6,6-trimethyl-1-(3-methylpyridin-2-yl)-6,7-dihydro-1H-indazol-4(5H)-one], the “CDK2/cyclin A inhibitory activity, in words” value in data set [1] was “low activities”.

For orientation: IC50 means the concentration at which inhibition is half-maximal. A high value points to weaker potency in that assay. In the case of `Cc1nn(-c2ccncn2)c2c1C(=O)CC(C)(C)C2Br` (stereo not shown) [Compound 59, 7-Bromo-3,6,6-trimethyl-1-(pyrimidin-4-yl)-6,7-dihydro-1H-indazol-4(5H)-one], the IC50 in data set [2] was 120 nM. Also, the “antiproliferative activities against MCF-7 cell line, none up to” value (“antiproliferative activities” for short) in data set [3] is over 200 µM. The “better binding affinity for CDK2 compared to screening hit 3” value in data set [4] worked out at 3 fold. As to `Cc1nn(-c2nccs2)c2c1C(=O)CC(C)(C)C2Br` (stereo not shown) [Compound 53, 7-Bromo-3,6,6-trimethyl-1-(thiazol-2-yl)-6,7-dihydro-1H-indazol-4(5H)-one], the values for the IC50 in data set [2] and in data set [5] were 61.9 nM and 2 nM, respectively. For the same molecule, in data set [3], the “antiproliferative activities” value is over 200 µM. Further, in data set [4], the “better binding affinity for CDK2 compared to screening hit 3” value is recorded as 3 fold.

For `Cc1nn(-c2ccccn2)c2c1C(=O)CC(c1ccccc1)C2Br` (stereo not shown) [Compound 18d, 7-Bromo-3-methyl-6-phenyl-1-(pyridin-2-yl)-6,7-dihydro-1H-indazol-4(5H)-one], the “CDK2/cyclin A inhibitory activity, in words” value in data set [1] is “inactive”. Take `COCCc1ccc(OCC(O)CNC(C)C)cc1` (stereo not shown) [Metoprolol, metoprolol, reference compound]: in data set [6], the “Papp (A-B) (10^−6, cm/s)” value is 26.9 10^−6, cm/s and the “Papp (B-A) (10^−6, cm/s)” value is 21.2 10^−6, cm/s.

Turning to `Cc1nn(-c2ccccn2)c2c1C(=O)NCC(C)(C)C2Br` (stereo not shown) [Compound 21, 8-Bromo-3,7,7-trimethyl-1-(pyridin-2-yl)-5,6,7,8-tetrahydropyrazolo[4,3-c]azepin-4(1H)-one], the “CDK2/cyclin A inhibitory activity, in words” value in data set [1] is “moderately active”. In the case of `Cc1nn(-c2ccccn2)c2c1NC(=O)CC(C)(C)C2` [Compound 19, 3,7,7-Trimethyl-1-(pyridin-2-yl)-4,6,7,8-tetrahydropyrazolo[4,3-b]azepin-5(1H)-one], in data set [1], the “CDK2/cyclin A inhibitory activity, in words” value was “inactive”. As usually defined, the Kd is the free concentration of one partner at which half of the binding sites on the other are occupied at equilibrium, for simple one-to-one binding. The low end stands for tighter binding, the high end for weaker binding. `Cc1nn(-c2ccccn2)c2c1C(=O)CC(C)(C)C2Br` (stereo not shown) [Compound 3, 7-Bromo-3,6,6-trimethyl-1-(pyridin-2-yl)-6,7-dihydro-1H-indazol-4(5H)-one]: in data set [2], the IC50 was 86 nM. For the same molecule, in data set [6], the “Papp (A-B) (10^−6, cm/s)” value is 20.1 10^−6, cm/s and the “Papp (B-A) (10^−6, cm/s)” value is on record as 9.52 10^−6, cm/s. For the same molecule, the “activity against HSP90” value in data set [7] is “did not exhibit any activity”. For the same molecule, in data set [3], the “antiproliferative activities” value was over 200 µM. The Kd in data set [4] is 15000 nM. Consider `Cc1nn(-c2ncccc2C(F)(F)F)c2c1C(=O)CC(C)(C)C2Br` (stereo not shown) [Compound 46, 7-Bromo-3,6,6-trimethyl-1-(3-(trifluoromethyl)pyridin-2-yl)-6,7-dihydro-1H-indazol-4(5H)-one], for which the “CDK2/cyclin A inhibitory activity, in words” value in data set [1] was “low activities”. On the same count and under the same terms, in the case of `Cc1nn(-c2ccccn2)c2c1/C(=N/O)CC(C)(C)C2Br` (stereo not shown) [Compound 23, 7-Bromo-3,6,6-trimethyl-1-(pyridin-2-yl)-6,7-dihydro-1H-indazol-4(5H)-one Oxime] it was “weak inhibitory activity”.

Turning to `Cc1nn(-c2ccccn2)c2c1C(=O)CC(C)C2Br` (stereo not drawn) [Compound 18b-cis, 7-Bromo-3,6-dimethyl-1-(pyridin-2-yl)-6,7-dihydro-1H-indazol-4(5H)-one], the “Inhibition of CDK complexes at 1 μM, in words” value in data set [8] is on record as “did not exhibit significant inhibitory activity”. On to `Cc1nn(-c2ccccn2)c2c1C(=O)NCC(C)(C)C2` [Compound 20, 3,7,7-Trimethyl-1-(pyridin-2-yl)-5,6,7,8-tetrahydropyrazolo[4,3-c]azepin-4(1H)-one], for which the “CDK2/cyclin A inhibitory activity, in words” value in data set [1] was “inactive”. `Cc1nn(-c2ccccn2)c2c1C(O)CC(C)(C)C2Br` (stereo not shown) [Compound 22, 7-Bromo-3,6,6-trimethyl-1-(pyridin-2-yl)-4,5,6,7-tetrahydro-1H-indazol-4-ol]: the “CDK2/cyclin A inhibitory activity, in words” value in data set [1] is reported as “weak inhibitory activity”.

For `Cc1nn(-c2ncccc2C(F)(F)F)c2c1C(=O)C(Br)C(C)(C)C2` (stereo not shown) [Compound 47, 5-Bromo-3,6,6-trimethyl-1-(3-(trifluoromethyl)pyridin-2-yl)-6,7-dihydro-1H-indazol-4(5H)-one], the “CDK2/cyclin A inhibitory activity, in words” value in data set [1] is listed as “low activities”.
